The term IC50 denotes the concentration needed to halve the response being measured.

Among the data in patent publication US10233173B2, “Substituted 1,2,3-triazoles as NR2B-selective NMDA modulators” (JANSSEN PHARMACEUTICA NV, priority 2016, dated 2019) are IC50 values, retold here.

For the test, the target named is human GluN1/GluN2B NMDA receptors (Homo sapiens, UniProt Q05586+Q13224). Nature of the test: Cell-based calcium flux (FLIPR) assay on cloned human NR1/NR2B ion channels expressed in mammalian cells. Particulars: standard assay; glutamate at ~EC80; FLIPR calcium flux. In short, it runs like this: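 Calcium influx followed by FLIPR fluorescence after 5 min compound exposure and a further 5 min co-agonist challenge: 10 μM glycine with glutamate at ~EC80 (standard) or EC40 (HTS).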
Sequence of human GluN1/GluN2B NMDA receptors (Q13224 27-1484, other chains not shown): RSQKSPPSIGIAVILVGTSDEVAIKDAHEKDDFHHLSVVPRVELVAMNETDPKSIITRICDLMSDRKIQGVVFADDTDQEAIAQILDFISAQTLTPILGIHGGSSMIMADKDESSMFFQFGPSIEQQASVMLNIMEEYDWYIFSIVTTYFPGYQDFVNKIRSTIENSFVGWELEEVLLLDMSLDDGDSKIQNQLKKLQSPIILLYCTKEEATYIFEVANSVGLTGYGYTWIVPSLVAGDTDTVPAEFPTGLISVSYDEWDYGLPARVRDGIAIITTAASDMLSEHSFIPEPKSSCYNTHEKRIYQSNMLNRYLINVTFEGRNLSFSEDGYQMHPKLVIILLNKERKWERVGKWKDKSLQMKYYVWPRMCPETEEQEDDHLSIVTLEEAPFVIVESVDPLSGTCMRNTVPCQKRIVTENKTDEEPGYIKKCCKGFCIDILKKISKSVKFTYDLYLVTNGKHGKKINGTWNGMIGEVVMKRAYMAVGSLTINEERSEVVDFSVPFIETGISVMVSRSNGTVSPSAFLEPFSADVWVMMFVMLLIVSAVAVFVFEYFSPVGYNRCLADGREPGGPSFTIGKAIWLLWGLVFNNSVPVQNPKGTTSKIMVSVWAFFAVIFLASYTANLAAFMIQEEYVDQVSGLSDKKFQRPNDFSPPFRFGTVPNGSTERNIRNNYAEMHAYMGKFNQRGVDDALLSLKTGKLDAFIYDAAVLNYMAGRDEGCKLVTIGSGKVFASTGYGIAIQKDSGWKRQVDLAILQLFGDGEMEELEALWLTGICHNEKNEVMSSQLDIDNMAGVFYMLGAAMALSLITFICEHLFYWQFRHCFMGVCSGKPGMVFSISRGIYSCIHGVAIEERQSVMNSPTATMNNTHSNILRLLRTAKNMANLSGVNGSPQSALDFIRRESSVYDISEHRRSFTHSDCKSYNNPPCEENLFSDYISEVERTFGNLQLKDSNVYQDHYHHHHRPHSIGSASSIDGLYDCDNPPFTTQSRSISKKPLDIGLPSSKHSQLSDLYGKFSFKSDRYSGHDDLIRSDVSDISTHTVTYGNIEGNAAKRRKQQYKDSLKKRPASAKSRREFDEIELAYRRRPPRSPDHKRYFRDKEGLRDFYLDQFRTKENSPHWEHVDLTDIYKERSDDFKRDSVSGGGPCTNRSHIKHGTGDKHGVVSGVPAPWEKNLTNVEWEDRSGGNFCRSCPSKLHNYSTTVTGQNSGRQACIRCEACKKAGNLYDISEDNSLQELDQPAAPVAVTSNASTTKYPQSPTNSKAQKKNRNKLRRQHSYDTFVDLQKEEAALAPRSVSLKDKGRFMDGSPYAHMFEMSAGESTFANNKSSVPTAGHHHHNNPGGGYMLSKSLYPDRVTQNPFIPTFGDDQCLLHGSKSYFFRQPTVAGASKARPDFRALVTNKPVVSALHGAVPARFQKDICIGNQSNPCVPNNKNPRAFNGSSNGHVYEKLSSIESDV
On the technique in general: A change in cytosolic calcium serves as a functional read-out for many receptors and channels.
As to `CC(F)(F)c1cc(-n2cc(COc3nccc(N4CCCC4)n3)nn2)ccc1F` [Example 591, 2-[[1-[3-(1,1-Difluoroethyl)-4-fluoro-phenyl]triazol-4-yl]methoxy]-4-pyrrolidin-1-yl-pyrimidine], the IC50 was 0.016 µM.
As to `CC(F)(F)c1cc(-n2cc(COc3nccc(N4CCCCC4)n3)nn2)ccc1F` [Example 592, 2-[[1-[3-(1,1-Difluoroethyl)-4-fluoro-phenyl]triazol-4-yl]methoxy]-4-(1-piperidyl)pyrimidine], the half-inhibitory concentration (IC50) stood at 0.271 µM.
For `CCc1cnc(OCc2nnn(-c3ccc(F)c(C(C)(F)F)c3)c2C)nc1` [Example 593, 2-[[1-[3-(1,1-Difluoroethyl)-4-fluoro-phenyl]-5-methyl-triazol-4-yl]methoxy]-5-ethyl-pyrimidine], the IC50 is 0.486 µM.
Turning to `Cc1c(COc2ncc(C3CC3)cn2)nnn1-c1ccc(F)c(C(C)(F)F)c1` [Example 594, 5-Cyclopropyl-2-[[1-[3-(1,1-difluoroethyl)-4-fluoro-phenyl]-5-methyl-triazol-4-yl]methoxy]pyrimidine], the IC50 amounted to 0.171 µM.
The figure for `Cc1cnc(OCc2nnn(-c3ccc(F)c(C(C)(F)F)c3)c2C)nc1C` [Example 595, 2-[[1-[3-(1,1-Difluoroethyl)-4-fluoro-phenyl]-5-methyl-triazol-4-yl]methoxy]-4,5-dimethyl-pyrimidine] is 0.706 µM; for `Cc1nc(OCc2nnn(-c3ccc(F)c(C(C)(F)F)c3)c2C)ncc1Cl` [Example 596, 5-Chloro-2-[[1-[3-(1,1-difluoroethyl)-4-fluoro-phenyl]-5-methyl-triazol-4-yl]methoxy]-4-methyl-pyrimidine] it is 0.601 µM; for `Fc1ccc(-n2cc(COc3ncccn3)nn2)cc1F` [Example 597, 2-[[1-(3,4-Difluorophenyl)triazol-4-yl]methoxy]pyrimidine] it is 2.1 µM.
The figure for `Fc1cnc(OCc2cn(-c3ccc(F)c(F)c3)nn2)nc1` [Example 598, 2-[[1-(3,4-Difluorophenyl)triazol-4-yl]methoxy]-5-fluoro-pyrimidine] is 1.45 µM.
Turning to `COc1cnc(OCc2cn(-c3ccc(F)c(F)c3)nn2)nc1` [Example 599, 2-[[1-(3,4-Difluorophenyl)triazol-4-yl]methoxy]-5-methoxy-pyrimidine], the IC50 was found to be 0.034 µM.
`Fc1ccc(-n2cc(COc3ncc(Cl)cn3)nn2)cc1F` [Example 600, 5-Chloro-2-[[1-(3,4-difluorophenyl)triazol-4-yl]methoxy]pyrimidine]: the IC50 came to 0.238 µM.
The figure for `Cc1cnc(OCc2cn(-c3ccc(F)c(F)c3)nn2)nc1` [Example 601, 2-[[1-(3,4-Difluorophenyl)triazol-4-yl]methoxy]-5-methyl-pyrimidine] is 0.048 µM; for `CCc1cnc(OCc2cn(-c3ccc(F)c(F)c3)nn2)nc1` [Example 602, 2-[[1-(3,4-Difluorophenyl)triazol-4-yl]methoxy]-5-ethyl-pyrimidine] it is 0.023 µM; for `Cc1cnc(OCc2cn(-c3cc(F)ccc3F)nn2)nc1` [Example 603, 2-[[1-(2,5-Difluorophenyl)triazol-4-yl]methoxy]-5-methyl-pyrimidine] it is 10.4 µM.
Regarding `CC(C)(O)c1cnc(OCc2cn(-c3cc(F)ccc3F)nn2)nc1` [Example 604, 2-[2-[[1-(2,5-Difluorophenyl)triazol-4-yl]methoxy]pyrimidin-5-yl]propan-2-ol], the 50% inhibitory concentration (IC50) came out at 79.7 µM.
As to `Fc1cccc(-n2cc(COc3ncc(Cl)cn3)nn2)c1F` [Example 605, 5-Chloro-2-[[1-(2,3-difluorophenyl)triazol-4-yl]methoxy]pyrimidine], the IC50 was found to be 4.36 µM.
As for `Fc1cnc(OCc2cn(-c3cccc(F)c3F)nn2)nc1` [Example 606, 2-[[1-(2,3-Difluorophenyl)triazol-4-yl]methoxy]-5-fluoro-pyrimidine], the IC50 came to 17.5 µM.
Take `Fc1cccc(-n2cc(COc3ncccn3)nn2)c1F` [Example 607, 2-[[1-(2,3-Difluorophenyl)triazol-4-yl]methoxy]pyrimidine]: the IC50 is 3.43 µM.
For the compound `CC(C)(O)c1cnc(OCc2cn(-c3cccc(F)c3F)nn2)nc1` [Example 608, 2-[2-[[1-(2,3-Difluorophenyl)triazol-4-yl]methoxy]pyrimidin-5-yl]propan-2-ol], the IC50 was greater than 10 µM.
The figure for `Cc1cnc(OCc2cn(-c3cccc(Cl)c3F)nn2)nc1` [Example 610, 2-[[1-(3-Chloro-2-fluoro-phenyl)triazol-4-yl]methoxy]-5-methyl-pyrimidine] is 1.03 µM; for `Fc1c(Cl)cccc1-n1cc(COc2ncccn2)nn1` [Example 611, 2-[[1-(3-Chloro-2-fluoro-phenyl)triazol-4-yl]methoxy]pyrimidine] it is greater than 10 µM; for `Fc1c(Cl)cccc1-n1cc(COc2ncc(Cl)cn2)nn1` [Example 612, 5-Chloro-2-[[1-(3-chloro-2-fluoro-phenyl)triazol-4-yl]methoxy]pyrimidine] it is 1.74 µM.
Consider `Cc1nc(OCc2cn(-c3cccc(Cl)c3F)nn2)ncc1F` [Example 613, 2-[[1-(3-Chloro-2-fluoro-phenyl)triazol-4-yl]methoxy]-5-fluoro-4-methyl-pyrimidine], for which the IC50 amounted to 1.44 µM.
For `Fc1cnc(OCc2cn(-c3cccc(Cl)c3F)nn2)nc1` [Example 614, 2-[[1-(3-Chloro-2-fluoro-phenyl)triazol-4-yl]methoxy]-5-fluoro-pyrimidine], the half-inhibitory concentration (IC50) amounted to 4.03 µM.
The value for `CC(C)(O)c1cnc(OCc2cn(-c3cccc(Cl)c3F)nn2)nc1` [Example 615, 2-[2-[[1-(3-Chloro-2-fluoro-phenyl)triazol-4-yl]methoxy]pyrimidin-5-yl]propan-2-ol] was 4.66 µM; that for `OCc1cnc(OCc2cn(-c3ccc(F)c(Br)c3)nn2)nc1` [Example 616, [2-[[1-(3-Bromo-4-fluoro-phenyl)triazol-4-yl]methoxy]pyrimidin-5-yl]methanol] was 0.03 µM; that for `OCc1ccnc(OCc2cn(-c3ccc(F)c(Br)c3)nn2)n1` [Example 617, [2-[[1-(3-Bromo-4-fluoro-phenyl)triazol-4-yl]methoxy]pyrimidin-4-yl]methanol] was 0.041 µM.
Regarding `FCCOc1cnc(OCc2cn(-c3ccc(F)c(Br)c3)nn2)nc1` [Example 618, 2-[[1-(3-Bromo-4-fluoro-phenyl)triazol-4-yl]methoxy]-5-(2-fluoroethoxy)pyrimidine], the half-inhibitory concentration (IC50) is 0.006 µM.
For `Fc1ccc(-n2cc(COc3ncccn3)nn2)cc1Cl` [Example 619, 2-[[1-(3-Chloro-4-fluoro-phenyl)triazol-4-yl]methoxy]pyrimidine], the half-inhibitory concentration (IC50) was 0.217 µM.
The figure for `Cc1cnc(OCc2cn(-c3ccc(F)c(Cl)c3)nn2)nc1` [Example 620, 2-[[1-(3-Chloro-4-fluoro-phenyl)triazol-4-yl]methoxy]-5-methyl-pyrimidine] is 0.008 µM; for `CCc1cnc(OCc2cn(-c3ccc(F)c(Cl)c3)nn2)nc1` [Example 621, 2-[[1-(3-Chloro-4-fluoro-phenyl)triazol-4-yl]methoxy]-5-ethyl-pyrimidine] it is 0.003 µM.
The value for `COCc1ccnc(OCc2cn(-c3ccc(F)c(Cl)c3)nn2)n1` [Example 622, 2-[[1-(3-Chloro-4-fluoro-phenyl)triazol-4-yl]methoxy]-4-(methoxymethyl)pyrimidine] was 0.066 µM; that for `CC(C)c1ccnc(OCc2cn(-c3ccc(Cl)c(C(F)F)c3)nn2)n1` [Example 623, 2-[[1-[4-Chloro-3-(difluoromethyl)phenyl]triazol-4-yl]methoxy]-4-isopropyl-pyrimidine] was 0.129 µM; that for `OCc1cnc(OCc2cn(-c3ccc(Cl)c(C(F)F)c3)nn2)nc1` [Example 624, [2-[[1-[4-Chloro-3-(difluoromethyl)phenyl]triazol-4-yl]methoxy]pyrimidin-5-yl]methanol] was 0.02 µM.
The value for `OCc1ccnc(OCc2cn(-c3ccc(Cl)c(C(F)F)c3)nn2)n1` [Example 625, [2-[[1-[4-Chloro-3-(difluoromethyl)phenyl]triazol-4-yl]methoxy]pyrimidin-4-yl]methanol] was 0.017 µM.
On to `CC(C)(O)c1cnc(OCc2cn(-c3ccc(Cl)c(C(F)F)c3)nn2)nc1` [Example 626, 2-[2-[[1-[4-Chloro-3-(difluoromethyl)phenyl]triazol-4-yl]methoxy]pyrimidin-5-yl]propan-2-ol], for which the IC50 is 0.067 µM.
Consider `COCc1ccnc(OCc2cn(-c3ccc(Cl)c(C(F)F)c3)nn2)n1` [Example 627, 2-[[1-[4-Chloro-3-(difluoromethyl)phenyl]triazol-4-yl]methoxy]-4-(methoxymethyl)pyrimidine], for which the IC50 is 0.038 µM.
The figure for `FC(F)c1ccnc(OCc2cn(-c3ccc(Cl)c(C(F)F)c3)nn2)n1` [Example 628, 2-[[1-[4-Chloro-3-(difluoromethyl)phenyl]triazol-4-yl]methoxy]-4-(difluoromethyl)pyrimidine] is 0.042 µM; for `CN(C)c1ccnc(OCc2cn(-c3ccc(Cl)c(C(F)F)c3)nn2)n1` [Example 629, 2-[[1-[4-Chloro-3-(difluoromethyl)phenyl]triazol-4-yl]methoxy]-N,N-dimethyl-pyrimidin-4-amine] it is 0.007 µM.
The figure for `FC(F)c1cc(-n2cc(COc3ncc(C4CC4)cn3)nn2)ccc1Cl` [Example 630, 2-[[1-[4-Chloro-3-(difluoromethyl)phenyl]triazol-4-yl]methoxy]-5-cyclopropyl-pyrimidine] is 0.013 µM; for `FC(F)c1cc(-n2cc(COc3nccc(C4CC4)n3)nn2)ccc1Cl` [Example 631, 2-[[1-[4-Chloro-3-(difluoromethyl)phenyl]triazol-4-yl]methoxy]-4-cyclopropyl-pyrimidine] it is 0.042 µM.
`Cc1cnc(OCc2cn(-c3ccc(Cl)c(C(F)F)c3)nn2)nc1N` [Example 632, 2-[[1-[4-chloro-3-(difluoromethyl)phenyl]triazol-4-yl]methoxy]-5-methyl-pyrimidin-4-amine]: the IC50 came out at 0.004 µM.
